Details in all cases: Compound concentration 10 µM
In experiment [1] the target is T1, 5-hydroxytryptamine receptor 1A (Homo sapiens) (UniProt P08908).
T1 sequence (whole entry): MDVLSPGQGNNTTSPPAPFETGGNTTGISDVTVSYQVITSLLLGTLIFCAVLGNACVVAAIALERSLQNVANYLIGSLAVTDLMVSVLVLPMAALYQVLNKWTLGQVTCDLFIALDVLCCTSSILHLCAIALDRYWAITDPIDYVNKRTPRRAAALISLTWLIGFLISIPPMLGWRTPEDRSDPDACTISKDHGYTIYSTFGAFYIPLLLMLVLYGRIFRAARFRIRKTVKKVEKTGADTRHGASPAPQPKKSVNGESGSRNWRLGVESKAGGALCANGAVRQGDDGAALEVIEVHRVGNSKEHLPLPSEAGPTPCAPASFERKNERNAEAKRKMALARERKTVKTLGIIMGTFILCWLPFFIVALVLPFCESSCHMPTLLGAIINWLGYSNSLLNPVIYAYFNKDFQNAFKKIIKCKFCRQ

For experiment [2], the target named is T2, Alpha-1D adrenergic receptor (Homo sapiens) (UniProt P25100).
T2 sequence (whole entry): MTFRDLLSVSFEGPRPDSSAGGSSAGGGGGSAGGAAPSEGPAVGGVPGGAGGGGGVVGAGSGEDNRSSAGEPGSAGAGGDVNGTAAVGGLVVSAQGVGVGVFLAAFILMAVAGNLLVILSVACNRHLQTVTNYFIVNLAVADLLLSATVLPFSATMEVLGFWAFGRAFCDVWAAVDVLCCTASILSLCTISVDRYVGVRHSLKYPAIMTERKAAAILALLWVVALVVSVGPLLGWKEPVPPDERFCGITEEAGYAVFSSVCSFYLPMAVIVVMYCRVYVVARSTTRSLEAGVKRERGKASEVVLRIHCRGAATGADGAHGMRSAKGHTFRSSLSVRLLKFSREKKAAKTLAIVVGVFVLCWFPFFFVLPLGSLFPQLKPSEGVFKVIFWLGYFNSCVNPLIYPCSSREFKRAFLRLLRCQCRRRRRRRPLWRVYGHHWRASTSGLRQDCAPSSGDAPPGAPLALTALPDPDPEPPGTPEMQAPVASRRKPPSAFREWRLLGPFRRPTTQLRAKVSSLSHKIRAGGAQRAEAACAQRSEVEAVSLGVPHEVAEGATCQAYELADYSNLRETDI

Experiment [3] concerns the target D(3) dopamine receptor (Homo sapiens) (UniProt P35462).
The target in experiment [4] is Sodium-dependent dopamine transporter (Homo sapiens) (UniProt Q01959).
Sodium-dependent dopamine transporter (Homo sapiens), sequence (Q01959 whole entry): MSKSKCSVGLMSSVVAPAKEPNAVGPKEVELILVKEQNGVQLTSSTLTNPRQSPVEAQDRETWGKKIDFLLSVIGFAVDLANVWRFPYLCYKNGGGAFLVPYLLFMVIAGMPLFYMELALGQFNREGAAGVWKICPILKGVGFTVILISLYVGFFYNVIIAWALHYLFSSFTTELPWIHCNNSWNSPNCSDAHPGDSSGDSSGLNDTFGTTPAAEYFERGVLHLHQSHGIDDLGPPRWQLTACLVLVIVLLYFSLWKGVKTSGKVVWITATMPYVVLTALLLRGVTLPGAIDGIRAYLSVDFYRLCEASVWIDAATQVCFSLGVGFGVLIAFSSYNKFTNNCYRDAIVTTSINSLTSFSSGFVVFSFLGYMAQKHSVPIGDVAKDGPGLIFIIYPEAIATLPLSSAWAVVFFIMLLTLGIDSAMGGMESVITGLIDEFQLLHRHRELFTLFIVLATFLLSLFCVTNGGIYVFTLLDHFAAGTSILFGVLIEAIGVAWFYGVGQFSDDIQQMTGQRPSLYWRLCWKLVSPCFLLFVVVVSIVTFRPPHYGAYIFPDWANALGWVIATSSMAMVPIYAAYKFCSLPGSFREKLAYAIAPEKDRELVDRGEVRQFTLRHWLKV
Experiment [5] has as its target Beta-2 adrenergic receptor (Homo sapiens) (UniProt P07550).
Experiment [6] addresses T3, Muscarinic acetylcholine receptor M4 (Homo sapiens) (UniProt P08173).
T3 sequence (whole entry): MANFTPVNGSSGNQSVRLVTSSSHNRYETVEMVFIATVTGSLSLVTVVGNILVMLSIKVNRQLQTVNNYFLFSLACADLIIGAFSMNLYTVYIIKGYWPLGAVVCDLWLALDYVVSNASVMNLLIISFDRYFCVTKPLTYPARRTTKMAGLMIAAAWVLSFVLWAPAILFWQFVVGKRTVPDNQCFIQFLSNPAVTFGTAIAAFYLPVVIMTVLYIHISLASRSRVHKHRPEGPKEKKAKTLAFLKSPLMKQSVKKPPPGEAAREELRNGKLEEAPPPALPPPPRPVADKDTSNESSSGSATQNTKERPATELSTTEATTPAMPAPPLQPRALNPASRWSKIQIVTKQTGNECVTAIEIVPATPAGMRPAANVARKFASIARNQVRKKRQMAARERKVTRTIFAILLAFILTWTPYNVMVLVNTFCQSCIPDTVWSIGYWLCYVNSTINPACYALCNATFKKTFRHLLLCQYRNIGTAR

For experiment [7], the target named is Histamine H4 receptor (Homo sapiens) (UniProt Q9H3N8).
Histamine H4 receptor (Homo sapiens), sequence (Q9H3N8 whole entry): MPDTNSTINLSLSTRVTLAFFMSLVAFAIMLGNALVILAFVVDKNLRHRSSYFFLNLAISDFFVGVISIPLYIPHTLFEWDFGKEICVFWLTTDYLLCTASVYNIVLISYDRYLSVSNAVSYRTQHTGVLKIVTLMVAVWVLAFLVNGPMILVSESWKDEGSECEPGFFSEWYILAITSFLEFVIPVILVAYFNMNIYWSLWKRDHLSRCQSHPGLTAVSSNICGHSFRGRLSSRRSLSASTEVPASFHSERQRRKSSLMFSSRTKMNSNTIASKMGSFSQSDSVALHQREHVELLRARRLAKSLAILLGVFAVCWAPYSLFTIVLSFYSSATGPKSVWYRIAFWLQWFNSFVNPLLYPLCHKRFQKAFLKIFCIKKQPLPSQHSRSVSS
The target in experiment [8] is T4, D(4) dopamine receptor (Homo sapiens) (UniProt P21917).
T4 sequence (whole entry): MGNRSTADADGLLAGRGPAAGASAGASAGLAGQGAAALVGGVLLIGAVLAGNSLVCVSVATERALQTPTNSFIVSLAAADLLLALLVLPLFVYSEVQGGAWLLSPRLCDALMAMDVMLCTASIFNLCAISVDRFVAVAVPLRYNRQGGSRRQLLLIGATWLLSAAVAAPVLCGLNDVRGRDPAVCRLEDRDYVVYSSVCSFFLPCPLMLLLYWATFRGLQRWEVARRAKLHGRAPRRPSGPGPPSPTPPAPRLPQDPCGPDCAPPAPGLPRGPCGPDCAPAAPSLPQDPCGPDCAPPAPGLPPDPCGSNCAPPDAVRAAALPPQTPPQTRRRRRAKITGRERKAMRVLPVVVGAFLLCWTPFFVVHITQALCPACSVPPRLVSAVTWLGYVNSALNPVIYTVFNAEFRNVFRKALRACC

The target of experiment [9] is 5-hydroxytryptamine receptor 2B (Homo sapiens) (UniProt P41595).
5-hydroxytryptamine receptor 2B (Homo sapiens), sequence (P41595 whole entry): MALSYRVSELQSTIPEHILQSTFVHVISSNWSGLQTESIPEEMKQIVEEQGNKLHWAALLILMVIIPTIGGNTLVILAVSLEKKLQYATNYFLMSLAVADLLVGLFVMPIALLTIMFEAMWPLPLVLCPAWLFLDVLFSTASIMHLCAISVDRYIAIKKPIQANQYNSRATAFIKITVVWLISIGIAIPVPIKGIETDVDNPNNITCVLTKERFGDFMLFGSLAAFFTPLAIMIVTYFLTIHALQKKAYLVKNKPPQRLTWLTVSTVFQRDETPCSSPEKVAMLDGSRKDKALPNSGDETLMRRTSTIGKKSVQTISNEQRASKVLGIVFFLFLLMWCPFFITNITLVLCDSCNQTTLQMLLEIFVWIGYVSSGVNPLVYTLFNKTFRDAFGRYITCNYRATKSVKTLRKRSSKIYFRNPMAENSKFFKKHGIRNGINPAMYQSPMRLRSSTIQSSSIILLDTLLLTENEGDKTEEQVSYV
In experiment [10] the target is Histamine H1 receptor (Homo sapiens) (UniProt P35367).
Histamine H1 receptor (Homo sapiens), sequence (P35367 whole entry): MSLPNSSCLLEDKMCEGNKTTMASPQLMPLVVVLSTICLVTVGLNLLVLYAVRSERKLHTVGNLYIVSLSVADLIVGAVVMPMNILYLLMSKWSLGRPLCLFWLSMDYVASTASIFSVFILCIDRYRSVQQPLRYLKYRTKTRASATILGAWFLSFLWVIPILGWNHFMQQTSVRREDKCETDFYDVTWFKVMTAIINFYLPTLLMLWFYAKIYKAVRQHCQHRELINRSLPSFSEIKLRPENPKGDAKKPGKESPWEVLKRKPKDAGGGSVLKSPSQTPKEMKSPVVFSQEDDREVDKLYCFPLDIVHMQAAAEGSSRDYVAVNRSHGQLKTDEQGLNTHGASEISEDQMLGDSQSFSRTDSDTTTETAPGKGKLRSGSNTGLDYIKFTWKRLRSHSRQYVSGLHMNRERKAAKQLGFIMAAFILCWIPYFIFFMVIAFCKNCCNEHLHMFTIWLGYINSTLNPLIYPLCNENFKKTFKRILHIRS
Experiment [11] deals with T5, Alpha-2B adrenergic receptor (Homo sapiens) (UniProt P18089).
T5 sequence (whole entry): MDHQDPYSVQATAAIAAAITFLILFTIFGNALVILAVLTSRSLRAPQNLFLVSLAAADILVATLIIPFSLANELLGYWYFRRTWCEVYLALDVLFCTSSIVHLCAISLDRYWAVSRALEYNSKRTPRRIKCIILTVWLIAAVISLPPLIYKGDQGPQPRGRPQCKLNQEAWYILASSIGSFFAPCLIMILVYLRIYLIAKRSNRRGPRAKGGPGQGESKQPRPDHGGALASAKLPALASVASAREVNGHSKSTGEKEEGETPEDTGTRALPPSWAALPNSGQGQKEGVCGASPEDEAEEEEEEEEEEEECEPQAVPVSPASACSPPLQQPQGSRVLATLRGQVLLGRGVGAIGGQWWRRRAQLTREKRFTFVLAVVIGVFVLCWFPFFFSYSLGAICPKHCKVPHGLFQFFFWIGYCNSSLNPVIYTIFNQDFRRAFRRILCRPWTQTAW

Experiment [12] has as its target 5-hydroxytryptamine receptor 5A (Homo sapiens) (UniProt P47898).
The target of experiment [13] is Sodium-dependent noradrenaline transporter (Homo sapiens) (UniProt P23975).
Sodium-dependent noradrenaline transporter (Homo sapiens), sequence (P23975 whole entry): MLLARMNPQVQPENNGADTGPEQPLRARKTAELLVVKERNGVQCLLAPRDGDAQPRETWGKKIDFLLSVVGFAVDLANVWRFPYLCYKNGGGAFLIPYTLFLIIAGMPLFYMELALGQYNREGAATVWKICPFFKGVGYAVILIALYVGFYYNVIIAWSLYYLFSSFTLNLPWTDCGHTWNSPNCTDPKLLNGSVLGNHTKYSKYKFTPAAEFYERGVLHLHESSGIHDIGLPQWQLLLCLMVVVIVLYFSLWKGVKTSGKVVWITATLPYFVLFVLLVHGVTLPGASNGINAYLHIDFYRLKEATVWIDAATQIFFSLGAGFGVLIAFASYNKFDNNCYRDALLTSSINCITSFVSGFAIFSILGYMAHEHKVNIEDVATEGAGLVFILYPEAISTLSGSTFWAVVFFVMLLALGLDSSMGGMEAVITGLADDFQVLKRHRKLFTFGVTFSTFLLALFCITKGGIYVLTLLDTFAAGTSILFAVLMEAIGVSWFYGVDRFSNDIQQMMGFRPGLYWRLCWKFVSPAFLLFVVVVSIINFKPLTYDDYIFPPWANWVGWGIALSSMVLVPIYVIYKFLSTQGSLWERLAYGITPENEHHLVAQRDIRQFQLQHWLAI

D(3) dopamine receptor (Homo sapiens), sequence (P35462 whole entry): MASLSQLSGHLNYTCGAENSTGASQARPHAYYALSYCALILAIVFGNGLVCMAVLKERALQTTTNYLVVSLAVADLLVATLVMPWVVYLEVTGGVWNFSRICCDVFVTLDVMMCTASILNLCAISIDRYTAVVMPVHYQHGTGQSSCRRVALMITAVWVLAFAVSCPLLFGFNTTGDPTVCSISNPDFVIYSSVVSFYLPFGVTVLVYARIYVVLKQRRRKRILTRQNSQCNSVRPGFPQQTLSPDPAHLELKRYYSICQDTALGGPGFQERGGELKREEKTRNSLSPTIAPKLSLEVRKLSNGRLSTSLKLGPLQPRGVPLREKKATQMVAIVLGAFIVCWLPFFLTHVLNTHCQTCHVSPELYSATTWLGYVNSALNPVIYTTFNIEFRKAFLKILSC
Beta-2 adrenergic receptor (Homo sapiens), sequence (P07550 whole entry, looked up): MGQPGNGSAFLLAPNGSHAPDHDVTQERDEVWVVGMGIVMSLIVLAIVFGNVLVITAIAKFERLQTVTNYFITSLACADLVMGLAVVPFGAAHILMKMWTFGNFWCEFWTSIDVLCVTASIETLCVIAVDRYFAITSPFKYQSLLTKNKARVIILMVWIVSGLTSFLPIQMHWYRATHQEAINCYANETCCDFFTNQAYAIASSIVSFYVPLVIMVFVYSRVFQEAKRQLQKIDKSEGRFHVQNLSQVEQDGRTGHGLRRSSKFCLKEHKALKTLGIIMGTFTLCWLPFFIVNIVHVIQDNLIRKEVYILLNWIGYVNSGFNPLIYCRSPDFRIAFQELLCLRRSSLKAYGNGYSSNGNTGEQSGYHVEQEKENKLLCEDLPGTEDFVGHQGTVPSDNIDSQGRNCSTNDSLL
5-hydroxytryptamine receptor 5A (Homo sapiens), sequence (P47898 whole entry): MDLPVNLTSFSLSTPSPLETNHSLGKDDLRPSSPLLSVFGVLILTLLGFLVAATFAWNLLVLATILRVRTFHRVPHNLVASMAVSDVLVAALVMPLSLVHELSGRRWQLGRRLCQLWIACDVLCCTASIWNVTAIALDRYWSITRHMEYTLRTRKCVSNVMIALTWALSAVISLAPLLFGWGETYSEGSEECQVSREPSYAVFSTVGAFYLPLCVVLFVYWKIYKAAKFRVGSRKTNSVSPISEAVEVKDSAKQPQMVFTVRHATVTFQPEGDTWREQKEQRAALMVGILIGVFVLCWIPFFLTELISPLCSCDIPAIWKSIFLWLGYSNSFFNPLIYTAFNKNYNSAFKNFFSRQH

Turning to `CC(C)(C(=O)O)c1ccc(C(O)CCCN2CCC(C(O)(c3ccccc3)c3ccccc3)CC2)cc1` (stereo unspecified), the inhibition is -5.94% in experiment [1]; -2.43% in [2]; 53% in experiment [3]; 21.9% in experiment [4]; -5.98% in [5]; -3.2% in experiment [6]. Further, the inhibition was -8.03% in experiment [7], 19.6% in experiment [8] and 67.8% in experiment [9].
With `CCOC(=O)c1cc(C#N)c(N2CCC(C(=O)NS(=O)(=O)Cc3ccccc3)CC2)nc1C`, the inhibition in [2] was 29.5%; in [10], -6.11%; in [3] it was 50.8%; in experiment [4] it was 32.9%; in experiment [5], -1.62%; in experiment [6], 18.3%. The inhibition is -7.37% in [11], 6.28% in [7], 7.97% in [8] and -2.81% in experiment [12].
`COc1ccc2[nH]cc(CCNC(C)=O)c2c1`: the inhibition is -9.78% in experiment [13]; 5.08% in experiment [1]; -5.37% in experiment [2]; -7.6% in [3]; 29.5% in [4]; -1.29% in experiment [5]. Further, the results for the inhibition in [7], in [8] and in [9] were -3.64%, 1.97% and 49.5%, respectively.
In the case of `N#Cc1c[nH]c2c(C(=O)N3CCN(CCc4ccc(F)cc4)CC3)cccc12`, the inhibition in [13] was 71.6%; in experiment [1] it was 21.2%; in [2], -4.02%; in experiment [10], 46.1%; in experiment [3] it was 10.4%; in [4], 36.2%. Moreover, the inhibition in experiment [5] was 60.9%; in experiment [11], -6.2%; in experiment [7], -2.67%; in experiment [8] it was 81.9%; in experiment [9], 57.1%; in experiment [12] it was 12.6%.
For `C[C@]1(C(=O)N(CCCC(=O)O)Cc2cccc(Cl)c2)CCN1C(=O)c1csc2ccccc12`, the inhibition in [2] was 3.17%; in [10], 15.4%; in experiment [3], 29%; in [4] it was 13%; in experiment [6], 27.1%; in experiment [11] it was 13.3%. Also, the inhibition in experiment [7] is 12.9%; in experiment [8], 4.3%; in experiment [9], -7.25%; in experiment [12], -1.31%.
`CC(C)NC(=O)c1ccc(C#Cc2ccncc2)cn1`: the inhibition is 13.3% in experiment [2]; 26.8% in experiment [3]; 24.2% in [4]; -8.85% in experiment [5]; 30.9% in experiment [6]; -0.82% in experiment [11]. Further, the inhibition was -7.18% in [7] and 34.4% in [9].
`N#Cc1ccc(NC(=O)Nc2ccccc2Br)c2nn[nH]c12`: the inhibition is 35.6% in experiment [13]; 6.16% in [1]; -7.75% in [2]; 0.77% in experiment [10]; 43.3% in experiment [3]; 59.8% in [4]. Besides, the inhibition in experiment [5] was -2.94%; in experiment [6] it was 33.1%; in experiment [11], -2.75%; in experiment [7], 25.3%; in experiment [8], 13.3%; in experiment [9] it was 33.9%.
Turning to `CCCn1c(=O)c2nc(C34CC5CC(CC3C5)C4)[nH]c2n(CCC)c1=O`, the inhibition in experiment [1] is -4.72%; in [2], -8.33%; in experiment [10], 8.71%; in experiment [3], -4.54%; in experiment [4], 50%; in experiment [5] it was 4.88%. Besides, the inhibition is 6.22% in experiment [11], 6.77% in experiment [7], 1.06% in experiment [8] and 43.5% in [9].
`Brc1c(NC2=NCCN2)ccc2nccnc12`: the inhibition in [13] is 19.2%; in experiment [1] it was -4.03%; in experiment [2], 59%; in experiment [3], 29.2%; in experiment [4], -6.87%; in experiment [5], -1.17%. Further, the inhibition in experiment [7] is 2.56%; in experiment [8] it was 16.9%; in experiment [9], 22.7%.
As to `Cc1ccccc1N1CCN(S(=O)(=O)C[C@]23CC[C@H](C[C@@H]2NC(=O)[C@@H](N)CCS(C)(=O)=O)C3(C)C)CC1`, the inhibition in experiment [2] was 4.26%; in [10], 0.34%; in experiment [4] it was 30.4%; in [5], 13.7%; in experiment [11], 11.2%; in [7], -3.44%. Besides, the values for the inhibition in experiment [8], in [9] and in experiment [12] were -6.27%, 31.7% and -3.77%, respectively.
Consider `NC[C@H](O)c1ccc(O)c(O)c1`, for which the inhibition in [13] was 15.2%; in [1] it was -9.29%; in experiment [2] it was 64.8%; in [3] it was 57.9%; in [4], 21.8%; in [5], 16.9%. The values for the inhibition in [11], in [8] and in [9] were 90.6%, 46.9% and 24.8%, respectively.
In the case of `CNC[C@H](O)c1ccc(O)c(O)c1`, the inhibition in experiment [1] is -3.44%; in [2], 12.1%; in experiment [3], 47.1%; in [4] it was 32.7%; in experiment [5], 34.2%; in [7], -7.99%. Besides, the inhibition in [8] was 20.1%; in experiment [9], 1.88%; in experiment [12] it was -0.93%.

What is called inhibition is the relative decrease from the control value, in per cent.

The values are drawn from ChEMBL document CHEMBL5442219.
